In one data set the test system is Striatal gangliosides. As to the kind of experiment: Levels of striatal gangliosides of the rat following injuries by kainic acid. Format: in vivo. As to conditions: Group 3: kainic acid alone, 2 μg into striatum; relative to control = 100%. Here is the method:
Male rats, Charles River CD, body weight of 180-200 g, have been divided into 4 groups, each group having 20 animals. The first group has been classified as the control group, the second group has been treated with physiological solution, the third group has been treated with kainic acid and the fourth group has been treated with CMP-NANA (20 mg/kg/day, i.p.) and kainic acid.
The treatment with CMP-NANA has been started one week before the treatment with kainic acid and has been continued until the animals have been sacrified.
The animals have been anesthetized with pentobarbital (60 mg/kg i.p.) and then treated with kainic acid (2 μg in 1 μl of the physiological solution), that has been injected into striatum.
The control rats have been treated with an equal volume (1 μl) of the physiological solution.
After 7 days the rats have been sacrified and the striatum has been removed. Each single determination has been performed with the pool of 5 samples. The gangliosides have been extracted and determined (as NANA content) as described previously.

Data set [1] can be described thus: Adsorption and distribution of labeled CMP-NANA in the rat. Format: in vivo. As to conditions: 20 mg/kg i.m.; for Radioactivity level: Blood; for tissue uptake at 0.5 h / tissue uptake at 1 h / tissue uptake at 2 h / tissue uptake at 4 h: im, read-out: Radioactivity level. As for the experimental part: CMP-NANA [9-^3 H] has been purchased from NEN (New England Nuclear, 6072 Dreieich, West Germany).
The rats fasting for about 18 hours, have been treated with CMP-NANA, dissolved in the phosphate buffer, at the dose of 20 mg/kg i.m. (specific activity=1000 mCi/mg). After 30 min., 1 hour, 2 hours and 4 hours periods the animals have been sacrified in the groups of 4, then liver, kidney and brain have been taken away from the animals and accurately weighted.
100 μg samples of the previous organs, and an analogous sample of the blood have been dissolved in Soluene 350 (Packard) and have been counted on the scintillation instrument in the liquid phase, on addition of the scintillating liquid.
The measurements have been quantized using a canal to canal-ratio technique. Table 3 illustrates the averaged results of all measurements.

Where two headings read alike, the source gives them in different places.

Turning to `C=C(C)[C@H]1CN[C@H](C(=O)O)[C@H]1CC(=O)O` [kainic acid, reference compound], in the data set on Striatal gangliosides, the “Striatal gangliosides (NANA content)” value is reported as 66%.
Take `[3H]C(O)[C@@H](O)[C@@H](O)[C@@H]1O[C@](OP(=O)(O)OC[C@H]2O[C@@H](n3ccc(N)nc3=O)[C@H](O)[C@@H]2O)(C(=O)O)C[C@H](O)[C@H]1NC(C)=O` (stereo partly shown) [[^-3 H]-labeled CMP--NANA]: in data set [1], the “radioactivity decline in blood and organs (in words)” value was “rapidly diminished in the blood, and more slowly in the organs”. Further, the “radioactivity level of the brain relative to liver and kidney (in words)” value in data set [1] is “inferior to those of the liver and kidney”. In addition, the Radioactivity level in data set [1] (30 min) is reported as 12.2 % of the administrated dose pe; in data set [1] (1 hr) it was 5.7 % of the administrated dose pe; in data set [1] (2 hrs), 3.2 % of the administrated dose pe; in data set [1] (4 hrs), 1.9 % of the administrated dose pe. The tissue uptake at 0.5 h turned out to be 6.2 %ID/g in data set [1] (Brain, 30 min); 2.6 %ID/g in data set [1] (Kidney, 30 min); 3.9 %ID/g in data set [1] (Liver, 30 min). For the same molecule, the tissue uptake at 1 h in data set [1] (Brain, 1 hr) is 7.8 %ID/g; in data set [1] (Kidney, 1 hr), 5.2 %ID/g; in data set [1] (Liver, 1 hr), 4.7 %ID/g. Besides, the tissue uptake at 2 h in data set [1] (Brain, 2 hrs) amounted to 4.9 %ID/g; in data set [1] (Kidney, 2 hrs), 3.3 %ID/g; in data set [1] (Liver, 2 hrs), 2.8 %ID/g. The tissue uptake at 4 h in data set [1] (Brain, 4 hrs) is 2.4 %ID/g; in data set [1] (Kidney, 4 hrs) it was 1.6 %ID/g; in data set [1] (Liver, 4 hrs) it was 0.9 %ID/g.

Source of the values: patent US4704361A, “Pharmaceutical compositions containing the cytidine monophospate of 5-acetamido-3,5-dideoxy-D-glycero-D-galactononulosaminic acid and a method for preparing said compound” (Compagnia di Ricerca Chimica S.p.A., priority 1983, dated 1987).
